Source: patent US20220330549A1, “USE OF N-BENZYLBENZAMIDE-BASED COMPOUND AS HERBICIDE” (Northwest A&F University, priority 2020, published 2022)

Key:
Assay type in all cases: in vivo
Digitaria sanguinalis [1] = assay: Herbicidal activity test for indoor post-emergence spraying on stems and leaves; parameters: key: grade level by weed remaining vs blank control, e.g. 5 = 10.1-15%; conditions: 150 g a.i./ha, visual inspection 21 days after treatment
Summary of the method: (§1)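 Post-emergence stem and leaf spray in an indoor test following NY/T 1155.4-2006, with weeds sown and grown in a greenhouse. Effect scored visually 21 days after treatment as graded levels, each level set by the percentage of weed remaining relative to the blank control area.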

Piemarker [2] = assay: as above; parameters: key: grade level by weed remaining vs blank control, e.g. 5 = 10.1-15%; conditions: 150 g a.i./ha, visual inspection 21 days after treatment
Summary of the method: as §1

Humulus scandens [3] = assay: as above; parameters: key: grade level by weed remaining vs blank control, e.g. 5 = 10.1-15%; conditions: 150 g a.i./ha, visual inspection 21 days after treatment
Summary of the method: as §1

Amaranthus retroflexus [4] = assay: as above; parameters: key: grade level by weed remaining vs blank control, e.g. 5 = 10.1-15%; conditions: 150 g a.i./ha, visual inspection 21 days after treatment
Summary of the method: as §1

green bristlegrass [5] = assay: as above; parameters: key: grade level by weed remaining vs blank control, e.g. 5 = 10.1-15%; conditions: 150 g a.i./ha, visual inspection 21 days after treatment
Summary of the method: as §1

Barnyard grass [6] = assay: as above; parameters: key: grade level by weed remaining vs blank control, e.g. 5 = 10.1-15%; conditions: 150 g a.i./ha, visual inspection 21 days after treatment
Summary of the method: as §1

Humulus scandens [7] = assay: Herbicidal activity test for indoor pre-emergence soil treatment; conditions: 150 g a.i./ha, visual inspection 21 days after treatment
Summary of the method: (§2)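 Pre-emergence test following NY/T 1155.3-2006: weed seeds were sown in moistened neutral sandy loam (≤2% organic matter) and covered with 0.5–2.0 cm of soil. After 24 h, the soil was sprayed with a 10% EC diluted in water at 150 g(a.i.)/ha. Damage was scored visually on a 1–9 scale at 21 days.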

Digitaria sanguinalis [8] = assay: Field test for weed control in a corn field; conditions: 150 g a.i./ha, after treatment
Summary of the method: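 Field trial in a corn field following GB/T 17980.42-2000. Test compounds were formulated as 10% emulsifiable concentrates, diluted in water and sprayed post-emergence at 150 g(a.i.)/ha when corn had 2 to 5 leaves, with 4 replicates on 20 m^2 plots. Control of Digitaria sanguinalis was scored on a 1-9 scale based on weed damage relative to the untreated blank area.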

Portulaca oleracea = assay: Field test for weed control in a corn field; conditions: 150 g a.i./ha, after treatment
Summary of the method: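 Field efficacy trial in corn following GB/T 17980.42-2000. Test compounds were prepared as 10% emulsifiable concentrates, diluted in water, and sprayed at 150 g(a.i.)/ha when corn had 2 to 5 leaves after sowing. Plots were 20 m^2 with 4 replicates per treatment. Herbicidal activity was scored on a 1-9 scale from weed damage symptoms and severity.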

goosegrass = assay: Field test for weed control in a corn field; conditions: 150 g a.i./ha, after treatment
Summary of the method: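 Weed control efficacy against goosegrass was tested in a corn field following GB/T 17980.42-2000. Compounds formulated as 10% emulsifiable concentrates were diluted in water and sprayed post-emergence at 150 g(a.i.)/ha when corn had 2 to 5 leaves, with 4 replicates of 20 m^2 plots. Herbicidal activity was rated on a 1-9 scale by damage symptoms and severity.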

Acalypha australis = assay: Field test for weed control in a corn field; conditions: 150 g a.i./ha, after treatment
Summary of the method: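 Post-emergence field trial in a corn field following GB/T 17980.42-2000. Test compounds were formulated as 10% emulsifiable concentrates, diluted in water, and sprayed at 150 g(a.i.)/ha when corn had 2 to 5 leaves, with 4 replicates on 20 m^2 plots. Mesotrione 25% oil dispersion served as the control agent. Weed control was scored on a 1-9 scale.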

Amaranthus retroflexus [9] = assay: Field test for weed control in a corn field; conditions: 150 g a.i./ha, 30 days after treatment
Summary of the method: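 Field efficacy trial in a corn field following GB/T 17980.42-2000. Test compounds were formulated as 10% emulsifiable concentrates, diluted in water and sprayed post-emergence when corn had 2 to 5 leaves. Each treatment covered 20 m^2 with 4 replicates. A 25% mesotrione oil dispersion served as control. Damage to Amaranthus retroflexus was rated on a 1-9 scale against untreated blank plots.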

green bristlegrass [10] = assay: Field test for weed control in a corn field; conditions: 150 g a.i./ha, after treatment
Summary of the method: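 Post-emergence weed control was tested in a corn field following GB/T 17980.42-2000. When the corn had 2 leaves to 5 leaves after sowing, 10% emulsifiable concentrates diluted in water were sprayed at 150 g(a.i.)/ha on 20 m^2 plots, four replicates per treatment. Effects on green bristlegrass were scored on a 1-9 damage scale relative to the blank control area.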

Barnyard grass [11] = assay: Field test for weed control in a corn field; conditions: 150 g a.i./ha, 30 days after treatment
Summary of the method: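 Corn-field efficacy trial following GB/T 17980.42-2000. Test compounds were formulated as 10% emulsifiable concentrates, diluted in water and sprayed post-emergence at 150 g(a.i.)/ha when corn had 2 to 5 leaves. Each treatment was replicated 4 times on 20 m^2 plots. Barnyard grass control was rated on a 1-9 damage scale.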

Solanum nigrum = assay: Field test for weed control in a corn field; conditions: 150 g a.i./ha, 30 days after treatment
Summary of the method: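 Post-emergence weed control was tested in a corn field following GB/T 17980.42-2000. Compounds were made into 10% emulsifiable concentrates, diluted in water and sprayed at 150 g(a.i.)/ha when corn had 2 to 5 leaves after sowing, in 20 m^2 plots with 4 replicates. Effects on Solanum nigrum were graded on a 1-9 scale relative to the blank control area.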

Chenopodium album = assay: Field test for weed control in a corn field; conditions: 150 g a.i./ha, after treatment
Summary of the method: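 A corn-field efficacy trial following GB/T 17980.42-2000 tested post-emergence control of Chenopodium album. Test compounds formulated as 10% emulsifiable concentrates were diluted in water and sprayed at 150 g(a.i.)/ha when the corn had 2 leaves to 5 leaves, on 20 m^2 plots with 4 replicates. Herbicidal activity was rated on a 1-9 scale by damage symptoms and severity.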

nutgrass flatsedge = assay: Field test for weed control in a corn field; conditions: 150 g a.i./ha, after treatment
Summary of the method: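 A corn field efficacy trial following GB/T 17980.42-2000 assessed post-emergence control of nutgrass flatsedge. Test compounds were formulated as 10% emulsifiable concentrates, diluted in water, and sprayed at 150 g(a.i.)/ha when the corn had 2 to 5 leaves. Each treatment had 4 replicates on 20 m^2 plots. Herbicidal activity was graded on a 1-9 scale by damage symptoms and severity.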

Convolvulus arvensis = assay: Field test for weed control in a corn field; conditions: 150 g a.i./ha, after treatment
Summary of the method: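 Field trial of weed control against Convolvulus arvensis in corn, run following GB/T 17980.42-2000. Test agents were formulated as 10% emulsifiable concentrates and sprayed in water at 150 g(a.i.)/ha when corn plants had 2 to 5 leaves. Each treatment was replicated 4 times on 20 m^2 plots, and 25% mesotrione oil dispersion served as the control agent.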

Broadleaf weed = assay: Post-emergence herbicidal activity test in a paddy field; parameters: key: level scale; higher level = more weed left vs blank control; conditions: 150 g a.i./ha (penoxsulam control 250 g(a.i.)/h)
Summary of the method: (§3)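 Efficacy was visually estimated 15 and 30 days after spraying, grading weed coverage relative to an untreated neighbouring plot (level 2 = 0 to 2.5%, level 9 = 67.6 to 100%). Treatments were 150 g(a.i.)/ha from 10% emulsifiable concentrates applied at the 4-5 leaf rice stage, four repeats of 50 m^2 each.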

Cyperaceae = assay: as above; parameters: key: level scale; higher level = more weed left vs blank control; conditions: 150 g a.i./ha (penoxsulam control 250 g(a.i.)/h)
Summary of the method: as §3

Gramineae = assay: as above; parameters: key: level scale; higher level = more weed left vs blank control; conditions: 150 g a.i./ha (penoxsulam control 250 g(a.i.)/h)
Summary of the method: as §3

Digitaria sanguinalis [12] = assay: Herbicidal activity test for indoor pre-emergence soil treatment; parameters: key: 1-9 levels; higher = more weed remaining vs blank control; conditions: 150 g a.i./ha, visual inspection 21 days after treatment
Summary of the method: as §2

Amaranthus retroflexus [13] = assay: as above; parameters: key: 1-9 levels; higher = more weed remaining vs blank control; conditions: 150 g a.i./ha, visual inspection 21 days after treatment
Summary of the method: as §2

Piemarker [14] = assay: as above; parameters: key: level 1-9; higher = more weed remaining vs blank control; conditions: 150 g a.i./ha, visual inspection 21 days after treatment
Summary of the method: as §2

green bristlegrass [15] = assay: as above; parameters: key: level 1-9; higher = more weed remaining vs blank control; conditions: 150 g a.i./ha, visual inspection 21 days after treatment
Summary of the method: as §2

Barnyard grass [16] = assay: as above; parameters: key: level 1-9; higher = more weed remaining vs blank control; conditions: 150 g a.i./ha, visual inspection 21 days after treatment
Summary of the method: as §2

Compound | Herbicidal Activity Digitaria sanguinalis (Digitaria sanguinalis [1]) | Herbicidal Activity Piemarker (Piemarker [2]) | Herbicidal Activity Humulus scandens (Humulus scandens [3]) | Herbicidal Activity Amaranthus retroflexus (Amaranthus retroflexus [4]) | Herbicidal Activity Green bristlegrass (green bristlegrass [5]) | Herbicidal Activity Barnyard grass (Barnyard grass [6]) | Herbicidal Activity Humulus scandens (Humulus scandens [7]) | Post-emergence weed control effect, Digitaria sanguinalis (Digitaria sanguinalis [8]) | Post-emergence weed control effect, Portulaca oleracea (Portulaca oleracea) | Post-emergence weed control effect, Goose grass (goosegrass) | Post-emergence weed control effect, Acalypha australis (Acalypha australis) | Post-emergence weed control effect, Amaranthus retroflexus (Amaranthus retroflexus [9]) | Post-emergence weed control effect, Green bristlegrass (green bristlegrass [10]) | Post-emergence weed control effect, Barnyard grass (Barnyard grass [11]) | Post-emergence weed control effect, Solanum nigrum (Solanum nigrum) | Post-emergence weed control effect, Chenopodium album (Chenopodium album) | Post-emergence weed control effect, Nutgrass flatsedge (nutgrass flatsedge) | Post-emergence weed control effect, Convolvulus arvensis (Convolvulus arvensis) | Herbicidal activity 15 days after treatment Broadleaf weed (Broadleaf weed) | Herbicidal activity 30 days after treatment Broadleaf weed (Broadleaf weed) | other results
COc1ccc(OC)c(C(=O)NCc2cc(Cl)cc(Cl)c2)c1 [Compound A29] | 1 | 1 | 1 | 1 | 1 | 1 | 2 (equivalent to 0 to 2.5% of the weed in the blank control area) | 2 (equivalent to 0 to 2.5% of the weed in the blank control area) | 1 | 2 (equivalent to 0 to 2.5% of the weed in the blank control area) | 1 | 1 | 2 (equivalent to 0 to 2.5% of the weed in the blank control area) | 1 | 2 (equivalent to 0 to 2.5% of the weed in the blank control area) | 1 | 2 (equivalent to 0 to 2.5% of the weed in the blank control area) | 2 (equivalent to 0 to 2.5% of the weed in the blank control area) | 1 | 1 | Herbicidal activity 15 days after treatment Cyperaceae (Cyperaceae): 1; Herbicidal activity 30 days after treatment Cyperaceae (Cyperaceae): 2 (equivalent to 0 to 2.5% of the weed in the blank control area); Herbicidal activity 15 days after treatment Gramineae (Gramineae): 2 (equivalent to 0 to 2.5% of the weed in the blank control area); Herbicidal activity 30 days after treatment Gramineae (Gramineae): 1; Herbicidal Activity Digitaria sanguinalis (Digitaria sanguinalis [12]): 2 (equivalent to 0 to 2.5% of the weed in the blank control area); Herbicidal Activity Amaranthus retroflexus (Amaranthus retroflexus [13]): 1; Herbicidal Activity Piemarker (Piemarker [14]): 1; Herbicidal Activity Green bristlegrass (green bristlegrass [15]): 1; Herbicidal Activity Barnyard grass (Barnyard grass [16]): 1
COc1ccccc1C(=O)NCc1cccc(C)c1 [Compound A14, 2-methoxy-N-(3-methylbenzyl)benzamide] | 1 | 1 | 1 | 1 | 1 | 2 (equivalent to 0 to 2.5% of the weed in the blank control area) | 3 (equivalent to 2.6 to 5% of the weed in the blank control area) | 2 (equivalent to 0 to 2.5% of the weed in the blank control area) | 1 | 1 | 2 (equivalent to 0 to 2.5% of the weed in the blank control area) | 1 | 1 | 1 | 2 (equivalent to 0 to 2.5% of the weed in the blank control area) | 1 | 2 (equivalent to 0 to 2.5% of the weed in the blank control area) | 1 | 1 | 2 (equivalent to 0 to 2.5% of the weed in the blank control area) | Herbicidal activity 15 days after treatment Cyperaceae (Cyperaceae): 1; Herbicidal activity 30 days after treatment Cyperaceae (Cyperaceae): 2 (equivalent to 0 to 2.5% of the weed in the blank control area); Herbicidal activity 15 days after treatment Gramineae (Gramineae): 1; Herbicidal activity 30 days after treatment Gramineae (Gramineae): 2 (equivalent to 0 to 2.5% of the weed in the blank control area); Herbicidal Activity Digitaria sanguinalis (Digitaria sanguinalis [12]): 2 (equivalent to 0 to 2.5% of the weed in the blank control area); Herbicidal Activity Amaranthus retroflexus (Amaranthus retroflexus [13]): 2 (equivalent to 0 to 2.5% of the weed in the blank control area); Herbicidal Activity Piemarker (Piemarker [14]): 1; Herbicidal Activity Green bristlegrass (green bristlegrass [15]): 1; Herbicidal Activity Barnyard grass (Barnyard grass [16]): 2 (equivalent to 0 to 2.5% of the weed in the blank control area)
